# Measurements reported in US20220296628A1, “RNA COMBINATIONS AND COMPOSITIONS WITH DECREASED IMMUNOSTIMULATORY PROPERTIES” (CureVac AG, priority 2019, published 2022).
# Test system: mice (strain 129SV)
# Assay: Serum IFNα by ELISA 24 hours post LNP injection
# Type: in vivo, mouse
# Conditions: 24 hours post i.v. LNP injection, in a dose-dependent manner (oligo 20% or 6.7% mass), compared to PpLuc mRNA only (FIG. 4B)
# Description: For preparation of Lipid nanoparticles (LNP) containing both PpLuc mRNA and 2-O-methylated oligonucleotide, first the 2′-O-methylated oligonucleotide was added to PpLuc mRNA at a weight percentage of either 20% or 6.7% (see Table 3). LNP containing PpLuc mRNA either with or without admixture of 2-O-methylated oligonucleotide were prepared using cationic lipid, cholesterol, PEG-lipid and a neutral lipid. The mRNA was diluted to 1 g/L in citrate buffer, pH 4. The ethanolic lipid solution was mixed with the aqueous RNA solution at a ratio of 1:3 (vol/vol) using a Nanoassemblr (PrecisionNanoSystems). The ethanol was then removed and the buffer replaced by 10 mM HEPES, pH 7.4 comprising 9% Sucrose by dialysis. […] To analyse the influence of the 2′-O-methylated oligonucleotide on immunostimulation, the concentrations of IFNγ, TNFα, IL-6, MIP-1β, RANTES, and MCP1 were measured in sera from blood collected 6 hours post LNP injection by Cytometric Bead Array (CBA), performed as described in paragraph 2.3. […] To further assess the influence of the 2′-O-methylated oligonucleotide on immunostimulation, the concentration of IFNα was measured in sera from blood collected 24 hours post LNP injection by ELISA.
substance,measurement,value
"5′-GAG CGmG CCA-3′ (GAGCNGCCA; 2'-O-methyl guanosine at position 5; 9mer oligonucleotide; modified_base (5)..(5) n can be any nucleotide, wherein the nucleotide is 2-O-methylated, preferably a 2-O-methylated guanosine) [Gm18, 9-mer 2′-O-methylated RNA oligonucleotide; position 5 is 2′-O-methylated guanosine (Gm); antagonist of TLR7 and 8]",release of IFNα in sera (ELISA),strongly decreases the release
